Twelve molecules from patent US20260028326A1, “COMPOUND BASED ON ISOINDOLINE-SUBSTITUTED GLUTARIMIDE BACKBONE AND USE THEREOF” (GLUETACS THERAPEUTICS (SHANGHAI) CO., LTD., priority 2022, published 2026) can be followed below.

The test system of one test is Mino cells. Nature of the test: Tumor cell proliferation IC50 (CCK-8), Mino.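 Note: cell viability assessed with CCK-8 reagent after compound exposure, IC50 derived from plotted growth inhibition curves.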 The following applies: Homo sapiens, 72 h, read-out: IC50 for inhibiting the proliferation of tumor cells, Mino.
In test [1] the target is human Cereblon WT GST-tagged protein (Homo sapiens (Human), UniProt Q96SW2). As to the kind of experiment: CRBN-binding affinity, HTRF (CEREBLON BINDING kit). An outline of the steps:
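HTRF competition readout: compounds compete with a thalidomide-Re conjugate for GST-tagged wild-type human CRBN detected via Eu-labelled anti-GST antibody. Inhibition rate derived relative to protein-free blank wells.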

The test system of a further test is Daudi cells. Nature of the test: Tumor cell proliferation IC50 (CCK-8), Daudi.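 Note: cell viability read with CCK-8 reagent after compound exposure of Daudi cells, IC50 derived from plotted growth inhibition curves.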 The following applies: Homo sapiens, read-out: IC50 for inhibiting the proliferation of tumor cells, Daudi.
The next test deals with MM.1S cells. As to the kind of experiment: Tumor cell proliferation IC50 (CCK-8), MM.1S.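 Note: viability of cultured cells read by CCK-8 reagent after compound exposure, growth inhibition curves fitted to derive IC50.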 The following applies: Homo sapiens, MM1.S, 72 h, read-out: IC50 for inhibiting the proliferation of tumor cells, MM.1S.
The target in the next test is GSPT1 protein (Homo sapiens (Human), UniProt P15170+Q96SW2). As to the kind of experiment: Western-blot assay of substrate protein degradation in hPBMC, GSPT1. In kind it is cell-based. The following applies: for residual substrate protein level, GSPT1: hPBMC cells, compound 500 nM, 24 hours, Western blot. (In general: Immunoblotting shows a protein as a band on a membrane.)
GSPT1 protein, sequence (P15170 whole entry): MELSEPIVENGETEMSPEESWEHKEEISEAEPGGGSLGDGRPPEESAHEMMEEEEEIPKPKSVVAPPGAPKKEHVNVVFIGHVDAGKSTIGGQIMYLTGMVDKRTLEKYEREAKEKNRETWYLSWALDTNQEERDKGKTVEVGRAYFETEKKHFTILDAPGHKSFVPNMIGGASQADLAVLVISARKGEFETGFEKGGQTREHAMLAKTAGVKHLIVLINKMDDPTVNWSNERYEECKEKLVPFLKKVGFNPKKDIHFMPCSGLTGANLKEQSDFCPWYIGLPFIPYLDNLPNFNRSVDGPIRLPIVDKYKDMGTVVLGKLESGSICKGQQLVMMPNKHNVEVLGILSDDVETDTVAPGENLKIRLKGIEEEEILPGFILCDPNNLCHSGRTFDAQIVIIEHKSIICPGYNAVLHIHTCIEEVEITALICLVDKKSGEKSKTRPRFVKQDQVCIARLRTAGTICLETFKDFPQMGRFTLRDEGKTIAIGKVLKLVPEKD
GSPT1 protein, sequence (Q96SW2 whole entry): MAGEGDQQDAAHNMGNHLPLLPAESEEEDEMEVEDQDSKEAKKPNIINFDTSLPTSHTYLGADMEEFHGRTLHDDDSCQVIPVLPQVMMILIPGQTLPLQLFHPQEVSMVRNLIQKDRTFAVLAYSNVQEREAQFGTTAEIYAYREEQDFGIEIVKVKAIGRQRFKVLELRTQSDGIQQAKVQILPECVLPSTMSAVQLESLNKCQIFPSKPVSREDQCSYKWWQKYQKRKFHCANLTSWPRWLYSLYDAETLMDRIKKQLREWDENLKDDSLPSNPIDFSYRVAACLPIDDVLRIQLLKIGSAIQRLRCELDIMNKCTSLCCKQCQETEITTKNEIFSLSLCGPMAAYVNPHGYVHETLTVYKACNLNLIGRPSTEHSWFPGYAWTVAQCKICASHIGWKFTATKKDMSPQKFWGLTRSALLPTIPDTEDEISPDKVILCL
GSPT1 protein, sequence (Q16531 whole entry partner): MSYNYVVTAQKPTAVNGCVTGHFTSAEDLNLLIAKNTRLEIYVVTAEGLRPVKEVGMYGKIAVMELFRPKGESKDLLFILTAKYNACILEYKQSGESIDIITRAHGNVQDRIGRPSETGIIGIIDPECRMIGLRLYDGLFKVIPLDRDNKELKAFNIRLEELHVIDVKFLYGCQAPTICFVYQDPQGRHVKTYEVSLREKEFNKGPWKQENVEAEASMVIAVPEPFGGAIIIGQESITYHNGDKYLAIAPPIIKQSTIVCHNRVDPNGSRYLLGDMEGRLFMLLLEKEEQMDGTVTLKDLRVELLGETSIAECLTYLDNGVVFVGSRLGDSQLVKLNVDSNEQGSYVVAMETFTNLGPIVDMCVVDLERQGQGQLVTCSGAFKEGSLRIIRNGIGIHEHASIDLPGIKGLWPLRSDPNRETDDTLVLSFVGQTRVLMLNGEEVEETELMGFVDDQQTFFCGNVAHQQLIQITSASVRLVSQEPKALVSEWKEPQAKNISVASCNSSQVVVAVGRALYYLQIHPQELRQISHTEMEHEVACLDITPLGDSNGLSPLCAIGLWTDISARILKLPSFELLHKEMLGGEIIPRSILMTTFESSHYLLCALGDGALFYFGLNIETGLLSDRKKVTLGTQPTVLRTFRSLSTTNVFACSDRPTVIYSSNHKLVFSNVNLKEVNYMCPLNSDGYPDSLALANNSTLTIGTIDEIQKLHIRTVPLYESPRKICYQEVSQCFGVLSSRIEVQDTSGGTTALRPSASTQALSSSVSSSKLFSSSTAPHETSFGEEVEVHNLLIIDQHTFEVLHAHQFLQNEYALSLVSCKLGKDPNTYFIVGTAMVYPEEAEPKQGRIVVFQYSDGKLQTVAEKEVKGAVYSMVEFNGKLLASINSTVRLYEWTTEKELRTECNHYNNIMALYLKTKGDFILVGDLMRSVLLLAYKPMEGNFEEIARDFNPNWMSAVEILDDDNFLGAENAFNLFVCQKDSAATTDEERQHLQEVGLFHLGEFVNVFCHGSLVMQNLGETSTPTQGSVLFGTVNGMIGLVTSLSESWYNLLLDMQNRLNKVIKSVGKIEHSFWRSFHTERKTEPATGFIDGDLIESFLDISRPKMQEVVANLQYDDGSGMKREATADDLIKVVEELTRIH

The target of another test is IKZF1 protein (Homo sapiens (Human), UniProt Q13422+Q96SW2). As to the kind of experiment: Western-blot assay of substrate protein degradation in hPBMC, IKZF1. In kind it is cell-based. The note with it: for residual substrate protein level, IKZF1: hPBMC cells, compound 500 nM, 24 hours, Western blot.
IKZF1 protein, sequence (Q13422 whole entry): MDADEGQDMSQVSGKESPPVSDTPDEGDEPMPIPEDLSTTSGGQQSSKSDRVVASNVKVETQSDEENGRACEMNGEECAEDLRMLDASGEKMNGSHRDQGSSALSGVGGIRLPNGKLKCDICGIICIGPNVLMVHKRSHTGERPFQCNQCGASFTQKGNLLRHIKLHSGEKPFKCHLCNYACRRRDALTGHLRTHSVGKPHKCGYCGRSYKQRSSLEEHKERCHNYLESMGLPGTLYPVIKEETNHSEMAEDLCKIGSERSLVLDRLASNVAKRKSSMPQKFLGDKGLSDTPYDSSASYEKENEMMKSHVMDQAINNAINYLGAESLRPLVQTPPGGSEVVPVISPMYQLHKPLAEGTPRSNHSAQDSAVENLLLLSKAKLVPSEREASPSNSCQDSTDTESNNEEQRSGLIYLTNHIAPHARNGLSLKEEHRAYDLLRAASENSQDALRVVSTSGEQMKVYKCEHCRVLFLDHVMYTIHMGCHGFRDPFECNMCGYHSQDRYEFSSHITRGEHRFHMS
IKZF1 protein, sequence (Q96SW2 whole entry): as the sequence (Q96SW2 whole entry) above
IKZF1 protein, sequence (Q16531 whole entry partner): as the sequence (Q16531 whole entry partner) above
A further test concerns the target IKZF3 protein (Homo sapiens (Human), UniProt Q96SW2+Q9UKT9). As to the kind of experiment: Western-blot assay of substrate protein degradation in hPBMC, IKZF3. In kind it is cell-based. The note with it: for residual substrate protein level, IKZF3: hPBMC cells, compound 500 nM, 24 hours, Western blot.
The next test has as its system CCRF-CEM cells. As to the kind of experiment: Tumor cell proliferation IC50 (CCK-8), CCRF-CEM.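 Note: cell viability measured with CCK-8 reagent after compound treatment, IC50 taken from plotted growth inhibition curves.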 The note with it: Homo sapiens, 96 h, read-out: IC50 for inhibiting the proliferation of tumor cells, CCRF-CEM.
[2] abbreviates: hPBMC, 24 h, serially diluted 0.03-1000 nM.

Molecules are shown by their SMILES. Some results are limits rather than exact numbers.

IKZF3 protein, sequence (Q9UKT9 whole entry): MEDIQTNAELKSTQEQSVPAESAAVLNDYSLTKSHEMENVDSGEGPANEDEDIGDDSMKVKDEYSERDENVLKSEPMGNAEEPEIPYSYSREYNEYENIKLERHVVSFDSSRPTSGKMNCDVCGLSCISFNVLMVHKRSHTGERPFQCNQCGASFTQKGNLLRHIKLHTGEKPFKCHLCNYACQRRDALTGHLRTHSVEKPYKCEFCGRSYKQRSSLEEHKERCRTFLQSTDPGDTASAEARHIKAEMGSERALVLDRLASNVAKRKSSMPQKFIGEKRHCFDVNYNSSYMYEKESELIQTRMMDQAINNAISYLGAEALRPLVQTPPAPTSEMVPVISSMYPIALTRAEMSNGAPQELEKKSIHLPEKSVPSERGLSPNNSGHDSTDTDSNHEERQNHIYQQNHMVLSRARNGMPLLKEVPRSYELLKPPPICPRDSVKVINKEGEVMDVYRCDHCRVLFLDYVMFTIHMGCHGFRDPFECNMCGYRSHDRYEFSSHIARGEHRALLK
IKZF3 protein, sequence (Q96SW2 whole entry): as the sequence (Q96SW2 whole entry) above
IKZF3 protein, sequence (Q16531 whole entry partner): as the sequence (Q16531 whole entry partner) above
human Cereblon WT GST-tagged protein, sequence (Q96SW2 whole entry): as the sequence (Q96SW2 whole entry) above
Protocol for Daudi cells: (§1) The tumor cells used herein were cultured in a cell culture medium listed in table A at 37° C. in an incubator with 5% CO2.
(§2) After the cells were treated with the compounds of the present disclosure for a period of time, the cell viability detection reagent was added to the culture medium for cell viability assessment according to the instructions provided with the CCK-8 kit. […] The growth inhibition of the compounds of the present disclosure on cells was plotted by Prism Graphpad software, and the IC50 values of the compounds of the present disclosure were calculated therefrom.
Protocol for MM.1S cells: as §1, §2

Take `O=C1CCC(N2Cc3cc(NC4CN(Cc5ccccc5-c5ccc(Cl)cc5)C4)ccc3C2=O)C(=O)N1` (stereo not drawn) [GT-05382, 3-(5-((1-((4′-chloro-[1,1′-biphenyl]-2-yl)methyl)azetidin-3-yl)amino)-1-oxoisoindolin-2-yl)piperidine-2,6-dione]: the IC50 is 10 to 50 nM with Mino cells; 660 nM in test [1]; 100 to 500 nM with Daudi cells; 10 to 50 nM in the test on MM.1S cells; 100 to 500 nM in the test with CCRF-CEM cells. For the same molecule, the “residual substrate protein level, GSPT1” value at GSPT1 protein is “A (A represents a residual substrate protein level of <50%)”. The “residual substrate protein level, IKZF1” value at IKZF1 protein is “A (A represents a residual substrate protein level of <50%)”. The “residual substrate protein level, IKZF3” value on IKZF3 protein was “A (A represents a residual substrate protein level of <50%)”.

For the molecule `O=C1CCC(N2Cc3cc(CN4CCN(Cc5ccccc5-c5cccs5)CC4)ccc3C2=O)C(=O)N1` (stereo not drawn) [GT-05519, 3-(1-oxo-5-((4-(2-(thiophen-2-yl)benzyl)piperazin-1-yl)methyl)isoindolin-2-yl)piperidine-2,6-dione], the IC50 was less than 5 nM in the test with Mino cells; 410 nM in test [1]; 5 to 10 nM with Daudi cells; less than 5 nM with MM.1S cells; less than 5 nM in the test on CCRF-CEM cells. The “residual substrate protein level, GSPT1” value on GSPT1 protein was “A (A represents a residual substrate protein level of <50%)”. Moreover, the “residual substrate protein level, IKZF1” value at IKZF1 protein is “A (A represents a residual substrate protein level of <50%)”. On IKZF3 protein, the “residual substrate protein level, IKZF3” value is “A (A represents a residual substrate protein level of <50%)”.

For `O=C1CCC(N2Cc3cc(CN4CCN(Cc5ccc(-c6ccc(Cl)cc6)cc5)CC4)ccc3C2=O)C(=O)N1` (stereo not drawn) [GT-05598, 3-(5-((4-((4′-chloro-[1,1′-biphenyl]-4-yl)methyl)piperazin-1-yl)methyl)-1-oxoisoindolin-2-yl)piperidine-2,6-dione], the IC50 is 10 to 50 nM with Mino cells; 680 nM in test [1]; 500 to 1000 nM in the test on Daudi cells; 50 to 100 nM in the test with MM.1S cells; 500 to 1000 nM with CCRF-CEM cells. Besides, on GSPT1 protein, the “residual substrate protein level, GSPT1” value was “B (B represents a residual substrate protein level of >50%)”. Further, at GSPT1 protein (setting [2]), the “concentration at which significant degradation effects on GSPT1 protein are exhibited (FIG. 1)” value was less than 3 nM. For the same molecule, the “residual substrate protein level, IKZF1” value on IKZF1 protein was “A (A represents a residual substrate protein level of <50%)”. For the same molecule, on IKZF1 protein (setting [2]), the “concentration at which significant degradation effects on IKZF1 protein are exhibited (FIG. 1)” value is less than 3 nM. The “residual substrate protein level, IKZF3” value on IKZF3 protein is reported as “A (A represents a residual substrate protein level of <50%)”. In addition, the “concentration at which significant degradation effects on IKZF3 protein are exhibited (FIG. 1)” value at IKZF3 protein (setting [2]) is reported as less than 3 nM.

As for `O=C1CCC(N2Cc3c(ccc(CN4CCN(Cc5ccccc5-c5ccc(F)cc5)CC4)c3F)C2=O)C(=O)N1` (stereo not drawn) [GT-05602, 3-(4-fluoro-5-((4-((4′-fluoro-[1,1′-biphenyl]-2-yl)methyl)piperazin-1-yl)methyl)-1-oxoisoindolin-2-yl)piperidine-2,6-dione], the IC50 with Mino cells is less than 5 nM; in test [1], 560 nM; with Daudi cells, 5 to 10 nM; in the test with MM.1S cells, less than 5 nM; with CCRF-CEM cells it was less than 5 nM. Further, at GSPT1 protein, the “residual substrate protein level, GSPT1” value was “A (A represents a residual substrate protein level of <50%)”. Moreover, at IKZF1 protein, the “residual substrate protein level, IKZF1” value is listed as “A (A represents a residual substrate protein level of <50%)”. In addition, at IKZF3 protein, the “residual substrate protein level, IKZF3” value is “A (A represents a residual substrate protein level of <50%)”.

Consider `O=C1CCC(N2Cc3cc(CN4CCN(Cc5ccccc5-c5ccc(F)cc5)CC4)c(F)cc3C2=O)C(=O)N1` (stereo not drawn) [GT-05603, 3-(6-fluoro-5-((4-((4′-fluoro-[1,1′-biphenyl]-2-yl)methyl)piperazin-1-yl)methyl)-1-oxoisoindolin-2-yl)piperidine-2,6-dione], for which the IC50 was less than 5 nM in the test on Mino cells; 940 nM in test [1]; 5 to 10 nM with Daudi cells; less than 5 nM in the test with MM.1S cells; 2.5 nM in the test on CCRF-CEM cells. Besides, the “residual substrate protein level, GSPT1” value on GSPT1 protein is “A (A represents a residual substrate protein level of <50%)”. The “residual substrate protein level, IKZF1” value on IKZF1 protein is listed as “A (A represents a residual substrate protein level of <50%)”. In addition, the “residual substrate protein level, IKZF3” value at IKZF3 protein is “A (A represents a residual substrate protein level of <50%)”.

For `O=C1CCC(N2C(=O)c3ccc(CN4CCN(Cc5ccc(-c6ccc(Cl)cc6)s5)CC4)cc3C2=O)C(=O)N1` (stereo not drawn) [GT-05626, 5-((4-((5-(4-chlorophenyl)thiophen-2-yl)methyl)piperazin-1-yl)methyl)-2-(2,6-dioxopiperidin-3-yl)isoindoline-1,3-dione], the IC50 with Mino cells, with Daudi cells and in the test with CCRF-CEM cells was 500 to 1000 nM each time. Besides, the “residual substrate protein level, GSPT1” value on GSPT1 protein was “B (B represents a residual substrate protein level of >50%)”. On IKZF1 protein, the “residual substrate protein level, IKZF1” value is “B (B represents a residual substrate protein level of >50%)”. For the same molecule, the “residual substrate protein level, IKZF3” value on IKZF3 protein is listed as “B (B represents a residual substrate protein level of >50%)”.

`O=C1CCC(N2Cc3cc(CN4CCN(C(=O)c5ccccc5-c5ccc(Cl)cc5)CC4)c(F)cc3C2=O)C(=O)N1` (stereo not drawn) [GT-05650, 3-(5-((4-(4′-chloro-[1,1′-biphenyl]-2-carbonyl)piperazin-1-yl)methyl)-6-fluoro-1-oxoisoindolin-2-yl)piperidine-2,6-dione]: the IC50 was 50 to 100 nM in the test with Mino cells; 940 nM in test [1]; 100 to 500 nM in the test with Daudi cells; 10 to 50 nM in the test on MM.1S cells; 10 to 50 nM with CCRF-CEM cells. In addition, the “residual substrate protein level, GSPT1” value at GSPT1 protein was “A (A represents a residual substrate protein level of <50%)”. Moreover, the “residual substrate protein level, IKZF1” value at IKZF1 protein was “A (A represents a residual substrate protein level of <50%)”. Also, on IKZF3 protein, the “residual substrate protein level, IKZF3” value is given as “A (A represents a residual substrate protein level of <50%)”.

As to `CC1(C)CCC(C(=O)N2CC3(CN(Cc4ccc5c(c4)CN(C4CCC(=O)NC4=O)C5=O)C3)C2)=C(c2ccc(F)cc2)C1` (stereo not drawn) [GT-05664, 3-(5-((6-(4′-fluoro-5,5-dimethyl-3,4,5,6-tetrahydro-[1,1′-biphenyl]-2-carbonyl)-2,6-diazaspiro[3.3]heptan-2-yl)methyl)-1-oxoisoindolin-2-yl)piperidine-2,6-dione], the IC50 in the test with Mino cells is 10 to 50 nM; in test [1] it was 560 nM; in the test with Daudi cells, 100 to 500 nM; with MM.1S cells it was 10 to 50 nM; with CCRF-CEM cells, 10 to 50 nM. For the same molecule, the “residual substrate protein level, GSPT1” value on GSPT1 protein was “A (A represents a residual substrate protein level of <50%)”. Besides, the “residual substrate protein level, IKZF1” value at IKZF1 protein is reported as “A (A represents a residual substrate protein level of <50%)”. The “residual substrate protein level, IKZF3” value on IKZF3 protein is reported as “A (A represents a residual substrate protein level of <50%)”.

For `Cn1cccc1-c1ccccc1CN1CCN(Cc2ccc3c(c2)CN(C2CCC(=O)NC2=O)C3=O)CC1` (stereo not drawn) [GT-05683, 3-(5-((4-(2-(1-methyl-1H-pyrrol-2-yl)benzyl)piperazin-1-yl)methyl)-1-oxoisoindolin-2-yl)piperidine-2,6-dione], the IC50 in the test with Mino cells is 10 to 50 nM; in test [1] it was 750 nM; with Daudi cells, 50 to 100 nM; in the test with MM.1S cells it was 5 to 10 nM; in the test on CCRF-CEM cells, 5 to 10 nM.

Regarding `O=C1CCC(N2Cc3cc(NC4CCN(C(=O)c5ccccc5-c5ccc(Cl)cc5)CC4)ccc3C2=O)C(=O)N1` (stereo not drawn) [GT-05784, 3-(5-((1-(4′-chloro-[1,1′-biphenyl]-2-carbonyl)piperidin-4-yl)amino)-1-oxoisoindolin-2-yl)piperidine-2,6-dione], the IC50 is less than 5 nM in the test with Mino cells; 620 nM in test [1]; 10 to 50 nM with Daudi cells; less than 5 nM in the test with MM.1S cells; less than 5 nM in the test on CCRF-CEM cells.

On to `CC1(C)CCC(CN2CCN(Cc3ccc4c(c3)CN(C3CCC(=O)NC3=O)C4=O)CC2)=C(c2cncs2)C1` (stereo not drawn) [GT-05791, 3-(5-((4-((4,4-dimethyl-2-(thiazol-5-yl)cyclohex-1-en-1-yl)methyl)piperazin-1-yl)methyl)-1-oxoisoindolin-2-yl)piperidine-2,6-dione], for which the IC50 with Mino cells was 10 to 50 nM; in test [1], 730 nM; with Daudi cells it was 500 to 1000 nM; in the test on MM.1S cells, 10 to 50 nM. Further, the “residual substrate protein level, GSPT1” value on GSPT1 protein is listed as “B (B represents a residual substrate protein level of >50%)”. Further, the “residual substrate protein level, IKZF1” value on IKZF1 protein is on record as “A (A represents a residual substrate protein level of <50%)”. Besides, the “residual substrate protein level, IKZF3” value at IKZF3 protein is reported as “A (A represents a residual substrate protein level of <50%)”.

In the case of `Cc1ccc(C2=C(CN3CCN(Cc4ccc5c(c4)CN(C4CCC(=O)NC4=O)C5=O)CC3)CCC(C)(C)C2)cc1` (stereo not drawn) [GT-05792, 3-(1-oxo-5-((4-((4′,5,5-trimethyl-3,4,5,6-tetrahydro-[1,1′-biphenyl]-2-yl)methyl)piperazin-1-yl)methyl)isoindolin-2-yl)piperidine-2,6-dione], the IC50 with Mino cells is 5 to 10 nM; in test [1], 660 nM; with Daudi cells it was 50 to 100 nM; with MM.1S cells, 5 to 10 nM; with CCRF-CEM cells, 5 to 10 nM.
